# Like-named read-outs stand apart in the source and are kept apart here.
# Key:
# M. tuberculosis (H37Rv) = test: microbe, parasite or virus in culture; format: cell-based, Mycobacterium tuberculosis
# physchem = format: physicochemical
# [1] = format: in vitro ADME, mouse; conditions: for Mouse micro Cl: intrinsic clearance (Cli), CD1 mouse liver microsomes, Tables 1-4; for Microsomal Cli: supplement data table
# [2] = format: in vitro ADME, mouse; conditions: for Mouse Heps Cl: intrinsic clearance (Cli), mouse hepatocytes, Tables 1-4; for Hepatocyte Cli: supplement data table
# [3] = pH 7.4
# HepG2 cells = test: HepG2 cytotoxicity
# Text: Assays to establish HepG2 cytotoxicity, in vitro microsomal/hepatocyte metabolic stability, aqueous kinetic solubility, and in vivo pharmacokinetic profiles were all performed as previously described.[15],[35]−[37]
# [4] = test system: iniBAC promoter (PiniB-LUX strain); format: cell-based, Mycobacterium tuberculosis
# Pks13 hypomorph strain = format: cell-based, Mycobacterium tuberculosis
# [5] = test system: MmpL3, DprE1, InhA, FadD32, Kas A hypomorph strains; format: cell-based, Mycobacterium tuberculosis
# [6] = format: in vitro ADME, human
# Protocol: Non-Chemistry supplementary methods
# Test compound (10 µM) was incubated with 0.5 mg/mL Human Liver Microsomes (Mixed Gender, Life Technologies) in 50 mM potassium phosphate buffer, pH7.4 in the presence of either NADPH (8mg/mL), glutathione or NADPH plus glutathione. Reactions are started by addition of 5 µL of 1 mM test compound (final concentration 10 µM, 1% solvent). Immediately, an aliquot (100 µL) of the incubation mixture was removed and mixed with acetonitrile (200 µL) to stop the reaction. A further 100 uL aliquot is removed at 90 minutes. After addition of 100 µL of water, the samples were centrifuged to sediment precipitated protein and the plates then sealed prior to analysis using a Xevo QTof Quadrupole Time-of-Flight Mass Spectrometer (Waters corporation, USA). Detection of metabolites is performed by analysis with MetabolynxXS and by manual data searching. Elemental composition of the parent ion and MS/MS analysis is used to determine the nature of the GSH adduct.
# Incubations with Clozapine were performed to provide a positive control.
# Met ID in human liver microsomes […]
# Analysis was performed on a Waters Acquity H-Class UHPLC system equipped with a photodiode array detector and Waters Xevo Q-ToF high resolution mass spectrometer. […] After the UV detector the mobile phase flow was analysed using the QToF mass spectrometer. […]
# [7] = kinetic solubility in water, read-out: Kin. Sol
compound,measurement,setting,value
COC(=O)c1nn(c(c1NC(=O)c1c(c(c(c(c1F)F)F)F)F)C)C [Compound 20],MIC,M. tuberculosis (H37Rv); read-out: H37Rv MIC A,>50 µM
same,MIC,M. tuberculosis (H37Rv); read-out: H37Rv MIC B,>50 µM
same,MIC,M. tuberculosis (H37Rv); read-out: Wk2_7H9/DPPC/ casitone/ Tyloxapol MIC,>50 µM
same,MIC,M. tuberculosis (H37Rv); read-out: Wk2_ 7H9/DPPC/ cholesterol/BSA/ Tyloxapol MIC,>50 µM
same,MIC,M. tuberculosis (H37Rv); read-out: Wk2_7H9/glucose/ BSA/Tyloxapol MIC,>50 µM
same,MIC,M. tuberculosis (H37Rv); read-out: Wk2_7H9/glucose/ casitone/ Tyloxapol MIC,>50 µM
same,solubility kinetic,physchem; [7],229 µM
same,solubility kinetic,"physchem; pH 7.4, read-out: Kinetic Solubility pH7.4",229 µM
same,Mouse micro Cl,[1],1.4 mLmin/g
same,Microsomal Cli,[1],1.4 mL/min/g
same,Mouse Heps Cl,[2],15.2 mLmin/g
same,Hepatocyte Cli,[2],15 mL/min/g
same,CHI LogD,[3],2.0
same,IC50,"HepG2 cells; read-out: HepG2 inhibitory concentration (IC50), growth of HepG2 cells",> 100 µM
"CN(C)c1ncnc2sc(-c3c(F)c(F)c(F)c(F)c3F)nc12.Cl [Compound 1, CN(C)c1ncnc2sc(nc12)-c1c(c(c(c(c1F)F)F)F)F]",MIC,"M. tuberculosis (H37Rv); Mycobacterium tuberculosis, H37RV, read-out: H37Rv MIC A",0.12 µM
same,MIC,"M. tuberculosis (H37Rv); Mycobacterium tuberculosis, H37RV, read-out: H37Rv MIC B",0.61 µM
same,MIC,"M. tuberculosis (H37Rv); Mycobacterium tuberculosis, H37RV, read-out: Wk2_7H9/DPPC/ casitone/ Tyloxapol MIC",0.124 µM
same,MIC,"M. tuberculosis (H37Rv); Mycobacterium tuberculosis, H37RV, read-out: Wk2_ 7H9/DPPC/ cholesterol/BSA/ Tyloxapol MIC",0.6 µM
same,MIC,"M. tuberculosis (H37Rv); Mycobacterium tuberculosis, H37RV, read-out: Wk2_7H9/glucose/ BSA/Tyloxapol MIC",0.5 µM
same,MIC,"M. tuberculosis (H37Rv); Mycobacterium tuberculosis, H37RV, read-out: Wk2_7H9/glucose/ casitone/ Tyloxapol MIC",0.1 µM
same,solubility kinetic,physchem; [7],1.9 µM
same,solubility kinetic,"physchem; pH 7.4, aqueous buffer, kinetic from dmso stock, pH7.4, read-out: Kinetic Solubility pH7.4",1.9 µM
same,Mouse micro Cl,[1],>50 mLmin/g
same,Microsomal Cli,[1],>50 mL/min/g
same,Mouse Heps Cl,[2],>50 mLmin/g
same,Hepatocyte Cli,[2],>50 mL/min/g
same,PiniB-LUX luminescent signal,[4],strong luminescent signal
same,shift in IC50 between the ± atc conditions,Pks13 hypomorph strain,~10 fold
same,"change in potency on partial depletion of InhA, FadD32 or Kas A",[5],did not increase in potency
same,inhibition of MmpL3 or DprE1 suggested by hypomorph strains,[5],not inhibiting MmpL3 or DprE1
same,formation of the GSH adduct,[6],clear evidence of a significant peak corresponding to the formation of the GSH adduct
same,IC50,"HepG2 cells; Homo sapiens, HepG2, read-out: HepG2 inhibitory concentration (IC50)",> 100 µM
